Values quoted from earlier work as cited in US20260041710A1, “A NOVEL COMBINATION FOR ITS UTILITY IN MICRO AND MACRO VASCULAR COMPLICATIONS” (priority 2022, published 2026).
Where two headings read alike, the source gives them in different places.

Columns and labels:
[1] = system: 54 Irish patients of diabetic retinopathy; settings: single injection

Bevacizumab: full-length antibody that inhibits all isoforms of the VEGF-A family
BCVA (1 month after intravitreal injection, P<0.001): 0.76 | BCVA (before intravitreal injection): 0.90 | patients with greater than 50 microns reduction of macular thickness [1]: 9.2% | patients with greater than 100 microns reduction of macular thickness [1]: 20.3% | patients with less than 50 microns reduction in macular thickness [1]: 40.7% | patients without any improvement [1]: 29.6% | patients with greater than 50 microns reduction of macular thickness ([1]; of 54 patients): 5 patients | patients with less than 50 microns reduction in macular thickness ([1]; of 54 patients): 22 patients | patients without any improvement ([1]; of 54 patients): 16 patients
